Test results published in US8183364B2, “Substituted porphyrins” (Duke University, priority 2004, dated 2012).

Columns and labels:
[1] = Kinetic salt effect on O2.^− dismutation by cytochrome c assay; type: biochemical; conditions: 0.05 M phosphate buffer, pH 7.8, 0-0.4 M NaCl
Description: Kinetic salt effect. The dependence of the catalytic rate constant for the O2.^− dismutation upon ionic strength was determined by cytochrome c assay (McCord and Fridovich, J. Biol. Chem. 244:6049 (1969)) in 0.05 M phosphate buffer, pH 7.8 with NaCl ranging from 0 to 0.4 M. In doing this, the effect of ionic strength on the rate of the O2.^−/cytochrome c reaction was corrected for.
Kinetic salt effect. The effect of the ionic strength (μ) on the catalytic rate constant was assessed using eq which is based on Debye-Huckel relation (Hambright et al, J. Porphyrins Phthalocyanines 7:139-146 (2003)) for the effect of the ionic strength of the solution on the activity coefficient of an ion. log k=log kref+2AzAzBμ^1/2/(1+μ^1/2) The k is the rate constant at any given ionic strength, while kref is the rate constant at μ=0. The A is a collection of physical constants with a value of 0.509 and zA and zB are the charges of the reacting species. The equation predicts a linear plot of log k vs μ^1/2/(1+μ^1/2). Eq assumes a coefficient of 1.0 (βai) for μ^1/2 in the denominator, i.e., the distance of the closest approach, ai to be 3 A and β is a physical constant, […]. It is doubtful whether great significance can be attributed to the ai, thus to the product zAzB (Hambright et al, J. Porphyrins Phthalocyanines 7:139-146 (2003)), especially so in the light of the bulkiness, high charge and solvation shell of the metalloporphyrins. Accounting for the mono- and diprotonated phosphates as the major species at pH 7.8 (pKa=7.2), and the concentration of the NaCl, the ionic strength was calculated using equation μ=½ Σ mizi^2 where mi is the molality and zi the charge of the given ion.
The slopes of the plots are −6.48 (MnTE-2-PyP^5+), −7.02 (MnTMOE-2-PyP^5+), −7.38 (MnTDMOE-2-ImP^5+), and −4.15 (MnTnBu-2-PyP^5+). As expected (Hambright et al, J. Porphyrins Phthalocyanines 7:139-146 (2003)), when the reactants are ions of opposite charges, the higher the ionic strength of the solution the lower the rate constants, i.e. the slopes are negative. The slopes of the plots indicate clearly the impact of the local dielectric constant on the kcat. The kcat of the most lipophilic compound, MnTnBu-2-PyP^5+ is 40% less sensitive to the changes in ionic strength of the solution than is the kcat of its methoxyethyl analogue, MnTMOE-2-PyP^5+.

[2] = test system: SOD-deficient JI132 E. coli; assay: Aerobic growth of SOD-deficient E. coli; type: cell-based; conditions: for aerobic growth of SOD-deficient E. coli: 5AA minimal medium
Procedure, shortened: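 Strains were AB1157 and its sodA sodB mutant JI132, precultured overnight in M9CA at 37 °C, then diluted to 3×10^7 cells/mL in M9CA or, after washing, in 5AA minimal medium. Mn porphyrins at 0.1 to 30 μM were present during aerobic shaking at 37 °C. Growth rate was followed by turbidity at 700 nm.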

SMILES	slope of log kcat vs μ^1/2/(1+μ^1/2) [1]	aerobic growth of SOD-deficient E. coli ([2]; 25 μM)	aerobic growth of SOD-deficient E. coli ([2]; 3 μM)	protection of SOD-deficient E. coli ([2]; M9CA medium, 3 μM)	protection of E. coli from oxidative stress ([2]; ≦3 μM levels (FIG. 10: 5AA minimal medium))
COCC[n+]1ccccc1-c1c2nc(c(-c3cccc[n+]3CCOC)c3ccc([n-]3)c(-c3cccc[n+]3CCOC)c3nc(c(-c4cccc[n+]4CCOC)c4ccc1[n-]4)C=C3)C=C2.[Mn+3] [MnTMOE-2-PyP^5+, Mn(III) tetrakis 5,10,15,20-tetrakis[N-(2-methoxyethyl)pyridinium-2-yl]porphyrin]	−7.02	not far behind	–	–	–
COCCn1cc[n+](CCOC)c1-c1c2nc(c(-c3n(CCOC)cc[n+]3CCOC)c3ccc([n-]3)c(-c3n(CCOC)cc[n+]3CCOC)c3nc(c(-c4n(CCOC)cc[n+]4CCOC)c4ccc1[n-]4)C=C3)C=C2.[Mn+3] [MnTDMOE-2-ImP^5+, Mn(III) tetrakis 5,10,15,20-tetrakis[N,N′-di(2-methoxyethyl)imidazolium-2-yl]porphyrin]	−7.38	not far behind	the most effective methoxyethyl porphyrin	the most effective (next to n-butyl and n-hexyl)	the most protective
